Source: patent US20170296550A1, “ARYL SULTAM DERIVATIVES AS RORc MODULATORS” (Genentech, Inc., priority 2013, published 2017)

Target: T1, RORc (Homo sapiens, UniProt P51449)
T1 construct: host or cells: E. coli
T1 sequence (P51449 269-508 limits assumed): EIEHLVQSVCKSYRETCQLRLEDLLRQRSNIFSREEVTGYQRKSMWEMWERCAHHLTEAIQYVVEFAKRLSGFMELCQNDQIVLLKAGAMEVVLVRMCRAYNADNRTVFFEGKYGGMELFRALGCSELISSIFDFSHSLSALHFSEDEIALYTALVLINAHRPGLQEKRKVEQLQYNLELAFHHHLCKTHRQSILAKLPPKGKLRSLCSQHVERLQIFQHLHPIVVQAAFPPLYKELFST
Experiment: In Vitro RORc Ligand Binding Assay (25-[3H]hydroxycholesterol radioligand, filter plate)
Conditions: RORc ligand binding domain 0.6 ug/mL; 6 nM 25-[3H]hydroxycholesterol; 3 h at 25° C.
Description: Example 68 In Vitro RORc Ligand Binding Assay
This assay was used to determine a compound's potency in inhibiting activity of RORc by determining, Kiapp, IC50, or percent inhibition values.
On day of the assay, 100 uL of 0.05% CHAPS (in deionized H2O) was added to all wells of the GFB Unifilter plate and allowed soak for 1 h. A wash buffer of 50 mM HEPES (pH 7.4), 150 mM NaCl, and 5 mM MgCl2 was prepared to wash the filter plate. To prepare an assay buffer, BSA was added to the wash buffer to reach 0.01% and DTT was added to reach 1 mM.
For IC50 mode, 10 mM compound stocks were serially diluted in DMSO with DMSO to give 20× required final concentration in DMSO (15 uL compound+30 uL DMSO). The 20× compound stocks were diluted in DMSO with Assay Buffer 4-fold to reach 5× the final test concentration in 25% DMSO (10 uL compound+30 uL Assay Buffer). Solutions were mixed by aspiration several times with a pipette set on 50 uL volume. For the assay, 10 uL of 5× compound stock solutions in 25% DMSO were added to the assay plate in duplicate.
For two point screening, 10 mM stock compound solutions were diluted in DMSO to obtain 200 uM (20× the high test concentration) and then diluted 10-fold further to reach 20 uM (20× the low test concentration). The 20× stocks were diluted 4-fold with Assay Buffer (10 uL compound+30 uL Assay Buffer) to reach 5× the test concentrations (50 uM and 5 uM) and 10 uL were added to two assay plates for the duplicate wells. With each concentration tested on 2 plates, each set of 80 compounds used 4 assay plates (1 uM and 10 uM, with n=2).
25-hydroxycholesterol (1 uM) was used to determine the level of NSB signal is prepared in DMSO as for compounds above, then diluted in Assay Buffer to give a final concentration of 5 uM. For 25-hydroxycholesterol in 25% DMSO/75% Assay Buffer; 10 uL per well was used for NSB samples. Wells for Total Binding and No Receptor sample determination contained 10 uL of 25% DMSO/75% Assay Buffer per well.
Radioligand (25-[^3H]hydroxycholesterol) Preparation
25-[^3H]hydroxycholesterol was dilute in Assay Buffer to obtain 15 nM and vortex to mix. Add 20 uL to all wells to reach 6 nM final in the assay.
Stock receptor solution was diluted in assay buffer to obtain 1.5 ug/mL in Assay Buffer. 20 uL was added to all wells. For No R samples, 20 uL Assay Buffer was substituted for receptor solution.
Assay plates were 96-well polypropylene V-bottom plates. 10 uL of 5× compound in 25% DMSO/75% Assay Buffer was added to Test wells. 10 uL of 25% DMSO/75% Assay Buffer was added to Total Binding or No Receptor wells. 10 uL of 5 uM 25-hydroxycholesterol in 25% DMSO/75% Assay Buffer was added to NSB wells. 20 uL of 15 nM 25-[^3H]hydroxycholesterol prepared in Assay Buffer was added to all wells. 20 uL of 1.5 ug/mL RORc receptor was added to wells (or […] Assay Buffer to No R wells). Following addition to the wells, the plates were incubated 3 h at 25° C.
Using a Packard Filtermate Harvester, the filter plate were washed 4 times following transfer of the incubated samples. Plates were dry-filtered completely (2 h at 50° C. or overnight at room temperature). 50 uL Microscint 0 was added to all wells and read on Topcount protocol Inverted.
Final concentrations were as follows: 50 mM HEPES buffer (pH 7.4); 150 mM NaCl; 1 mM DTT; 5 mM MgCl2; 0.01% BSA; 5% DMSO; 0.6 ug/mL RORc receptor; 6 nM 25-[^3H]hydroxycholesterol. For NSB wells, 1 uM 25-hydroxycholesterol was also present.

Row | SMILES | IC50
1 | C[C@H]1CCC(c2ccccc2)S(=O)(=O)N1Cc1ccc(-c2cccc(S(C)(=O)=O)c2)cc1F (stereo partly drawn) [Example 23, (3S)-2-(3-Fluoro-3′-methanesulfonyl-biphenyl-4-ylmethyl)-3-methyl-6-phenyl-[1,2]thiazinane 1,1-dioxide] | 0.212 µM
2 | CC(=O)Nc1ccc(-c2ccc(CN3[C@@H](C)CCC(c4ccccc4)S3(=O)=O)c(F)c2)cn1 (stereo partly drawn) [Example 26, N-{5-[3-Fluoro-4-((3S)-3-methyl-1,1-dioxo-6-phenyl-[1,2]thiazinan-2-ylmethyl)-phcnyl]-pyridin-2-yl}-acetamide] | 1.91 µM
3 | C[C@H]1CCC(c2ccccc2)S(=O)(=O)N1Cc1ccc(-c2cnn(C)c2)cc1F (stereo partly drawn) [Example 29, (3S)-2-[2-Fluoro-4-(1-methyl-1H-pyrazol-4-yl)-benzyl]-3-methyl-6-phenyl-[1,2]thiazinane 1,1-dioxide] | 0.727 µM
4 | C[C@H]1CCC(c2ccccc2)S(=O)(=O)N1Cc1ccc(-c2ccncc2)cc1F (stereo partly drawn) [Example 34, (3S)-2-(2-Fluoro-4-pyridin-4-yl-benzyl)-3-methyl-6-phenyl-[1,2]thiazinane 1,1-dioxide] | 0.463 µM
5 | Cc1noc(C)c1-c1ccc(CN2[C@@H](C)CCC(c3ccccc3)S2(=O)=O)c(F)c1 (stereo partly drawn) [Example 35, (3S)-2-[4-(3,5-Dimethyl-isoxazol-4-yl)-2-fluoro-benzyl]-3-methyl-6-phenyl-[1,2]thiazinane 1,1-dioxide] | 0.534 µM
6 | CNC(=O)c1ccc(-c2ccc(CN3[C@@H](C)CCC(c4ccccc4)S3(=O)=O)c(F)c2)cn1 (stereo partly drawn) [Example 36, 5-[3-Fluoro-4-((3S)-3-methyl-1,1-dioxo-6-phenyl-[1,2]thiazinan-2-ylmethyl)-phenyl]-pyridine-2-carboxylic acid methylamide] | 1.6 µM
7 | C[C@H]1CCC(c2ccccc2)S(=O)(=O)N1Cc1ccc(-c2cnc(S(C)(=O)=O)nc2)cc1F (stereo partly drawn) [Example 40, (3S)-2-[2-Fluoro-4-(2-mcthanesulfonyl-pyrimidin-5-yl)-benzyl]-3-methyl-6-phenyl-[1,2]thiazinane 1,1-dioxide] | 0.989 µM
8 | Cc1cnccc1COc1ccc(CN2[C@@H](C)CCC(c3ccccc3)S2(=O)=O)cc1 (stereo partly drawn) [Example 47, (3S)-3-Methyl-2-[4-(3-methyl-pyridin-4-ylmethoxy)-benzyl]-6-phenyl-[1,2]thiazinane 1,1-dioxide] | 0.205 µM
9 | C[C@H]1CCC(c2ccccc2)S(=O)(=O)N1Cc1ccc(OCc2ncccn2)cc1 (stereo partly drawn) [Example 48, (3S)-3-Methyl-6-phenyl-2-[4-(pyrimidin-2-ylmethoxy)-benzyl]-[1,2]thiazinane 1,1-dioxide] | 1.63 µM
10 | C[C@H]1CCC(c2ccccc2)S(=O)(=O)N1Cc1ccc(OCc2cncn2C)cc1 (stereo partly drawn) [Example 49, (3S)-3-Methyl-2-[4-(3-methyl-3H-imidazol-4-ylmethoxy)-benzyl]-6-phenyl-[1,2]thiazinane 1,1-dioxide] | 0.295 µM
11 | Cc1cnc(COc2ccc(CN3[C@@H](C)CCC(c4ccccc4)S3(=O)=O)cc2)nc1 (stereo partly drawn) [Example 51, (3S)-3-Methyl-2-[4-(5-methyl-pyrimidin-2-ylmethoxy)-benzyl]-6-phenyl-[1,2]thiazinane 1,1-dioxide] | 1.18 µM
12 | Cc1oncc1COc1ccc(CN2[C@@H](C)CCC(c3ccccc3)S2(=O)=O)cc1 (stereo partly drawn) [Example 53, (3S)-3-Methyl-2-[4-(5-methyl-isoxazol-4-ylmethoxy)-benzyl]-6-phenyl-[1,2]thiazinane 1,1-dioxide] | 0.208 µM
13 | Cc1cc(COc2ccc(CN3[C@@H](C)CCC(c4ccccc4)S3(=O)=O)cc2)cc(C)n1 (stereo partly drawn) [Example 54, (3S)-2-[4-(2,6-Dimethyl-pyridin-4-ylmethoxy)-benzyl]-3-methyl-6-phenyl-[1,2]thiazinane 1,1-dioxide] | 0.295 µM
14 | Cc1cc(COc2ccc(CN3[C@@H](C)CCC(c4ccccc4)S3(=O)=O)cc2)n(C)n1 (stereo partly drawn) [Example 55, (3S)-2-[4-(2,5-Dimethyl-2H-pyrazol-3-ylmethoxy)-benzyl]-3-methyl-6-phenyl-[1,2]thiazinane 1,1-dioxide] | 0.387 µM
15 | C[C@H]1CCC(c2ccccc2)S(=O)(=O)N1Cc1ccc(OCCn2ccnc2)cc1 (stereo partly drawn) [Example 56, (3S)-2-[4-(2-Imidazol-1-yl-ethoxy)-benzyl]-3-methyl-6-phenyl-[1,2]thiazinane 1,1-dioxide] | 0.316 µM

Compounds with a lower IC50, results first:

Row | IC50 | SMILES
16 | 0.11 µM | C[C@H]1CCC(c2ccccc2)S(=O)(=O)N1Cc1ccc(-c2ccc(C#N)nc2)cc1F (stereo partly drawn) [Example 24, 5-[3-Fluoro-4-((3S)-3-methyl-1,1-dioxo-6-phenyl-[1,2]thiazinan-2-ylmethyl)-phenyl]-pyridine-2-carbonitrilc]
17 | 0.102 µM | C[C@H]1CCC(c2ccccc2)S(=O)(=O)N1Cc1ccc(-c2ccc(C#N)cc2)cc1F (stereo partly drawn) [Example 27, 3′-Fluoro-4′-((3S)-3-methyl-1,1-dioxo-6-phenyl-[1,2]thiazinan-2-ylmethyl)-biphenyl-4-carbonitrile]
18 | 0.037 µM | C[C@H]1CCC(c2ccccc2)S(=O)(=O)N1Cc1ccc(-c2ccc(C(N)=O)cc2)cc1F (stereo partly drawn) [Example 28, 3′-Fluoro-4′-((3S)-3-methyl-1,1-dioxo-6-phenyl-[1,2]thiazinan-2-ylmethyl)-biphenyl-4-carboxylic acid amide]
19 | 0.028 µM | C[C@H]1CCC(c2ccccc2)S(=O)(=O)N1Cc1ccc(-c2ccc(S(C)(=O)=O)cc2)cc1F (stereo partly drawn) [Example 31, (3S)-2-(3-Fluoro-4′-methanesulfonyl-biphenyl-4-ylmethyl)-3-methyl-6-phenyl-[1,2]thiazinane 1,1-dioxide]
20 | 0.161 µM | C[C@H]1CCC(c2ccccc2)S(=O)(=O)N1Cc1ccc(-c2ccccc2)cc1F (stereo partly drawn) [Example 32, (3S)-2-(3-Fluoro-biphenyl-4-ylmethyl)-3-methyl-6-phenyl-[1,2]thiazinane 1,1-dioxide]
21 | 0.044 µM | C[C@H]1CCC(c2ccccc2)S(=O)(=O)N1Cc1ccc(-c2ccc(NS(C)(=O)=O)cc2)cc1F (stereo partly drawn) [Example 33, N-[3′-Fluoro-4′-((3S)-3-methyl-1,1-dioxo-6-phenyl-[1,2]thiazinan-2-ylmethyl)-biphenyl-4-yl]-methanesulfonamide]
22 | 0.087 µM | C[C@H]1CCC(c2ccccc2)S(=O)(=O)N1Cc1ccc(-c2ccc(S(C)(=O)=O)cn2)cc1F (stereo partly drawn) [Example 38, (3S)-2-[2-Fluoro-4-(5-methanesulfonyl-pyridin-2-yl)-benzyl]-3-methyl-6-phenyl-[1,2]thiazinane 1,1-dioxide]
23 | 0.151 µM | C[C@H]1CCC(c2ccccc2)S(=O)(=O)N1Cc1ccc(-c2ccc(S(C)(=O)=O)nc2)cc1F (stereo partly drawn) [Example 39, (3S)-2-[2-Fluoro-4-(6-methanesulfonyl-pyridin-3-yl)-benzyl]-3-methyl-6-phenyl-[1,2]thiazinanc 1,1-dioxide]
24 | 0.153 µM | Cc1cccnc1COc1ccc(CN2[C@@H](C)CCC(c3ccccc3)S2(=O)=O)cc1 (stereo partly drawn) [Example 46, (3S)-3-Methyl-2-[4-(3-methyl-pyridin-2-ylmethoxy)-benzyl]-6-phenyl-[1,2]thiazinane 1,1-dioxide]
25 | 0.057 µM | Cc1ncccc1COc1ccc(CN2[C@@H](C)CCC(c3ccccc3)S2(=O)=O)cc1 (stereo partly drawn) [Example 52, (3S)-3-Methyl-2-[4-(2-methyl-pyridin-3-ylmethoxy)-benzyl)-6-phenyl-[1,2]thiazinane 1,1-dioxide]
